The conditions of this data set: for PAMPA_Papp_Avg / PAMPA_R1 / PAMPA_R3: PAMPA. On the technique in general: PAMPA measures passive passage across an artificial lipid membrane.

Here are results for twelve compounds from paper PMC9490236, “Accurate de novo design of membrane-traversing macrocycles” (Cell, 2022).

Where a SMILES comes first, the peptide text is derived from it. [ ]: non-standard residue; d: D form. dNMeF = CN[C@H](Cc1ccccc1)C(=O)O; NMeL = CN[C@@H](CC(C)C)C(=O)O; dNMeL = CN[C@H](CC(C)C)C(=O)O; NMeA = CN[C@@H](C)C(=O)O; Nle = CCCC[C@H](N)C(=O)O; dNMeA = CN[C@H](C)C(=O)O; Sar = CNCC(=O)O

`CC(C)C[C@@H]1NC(=O)[C@@H](C(C)C)NC(=O)[C@H](CC(C)C)N(C)C(=O)[C@H]2CCCN2C(=O)[C@@H](C(C)C)NC(=O)[C@H]2CCCN2C(=O)[C@@H](C(C)C)NC(=O)[C@@H](Cc2ccccc2)N(C)C(=O)[C@H](CC(C)C)N(C)C1=O` (single isomer, unassigned) [Design D9.8.p1, *LEU DVAL LEU *LEU *DPHE DVAL DPRO DVAL DPRO] gave a PAMPA_Papp_Avg of 5.72E-06, a PAMPA_R1 of 5.56E-06 and a PAMPA_R3 of 6.18E-06.

On to `CC[C@@H](C)[C@H]1NC(=O)[C@H](CC(C)C)N(C)C(=O)[C@H]2CCCN2C(=O)[C@H](CC(C)C)NC(=O)[C@H](Cc2ccccc2)N(C)C(=O)CN(C)C(=O)[C@@H](C(C)C)NC(=O)[C@H](C)NC(=O)[C@H]2CCCN2C(=O)[C@@H]2CCCN2C1=O` (single isomer, unassigned) [Design D10.58.p2, *GLY *PHE LEU DPRO *LEU DILE PRO DPRO ALA DVAL], for which the PAMPA_Papp_Avg is given as 3.23E-07, the PAMPA_R1 is reported as 3.15E-07 and the PAMPA_R3 was found to be 2.44E-07.

For the compound `CC[C@@H](C)[C@H]1NC(=O)[C@H](C(C)C)NC(=O)[C@H]2CCCN2C(=O)[C@@H]2CCCN2C(=O)[C@H](Cc2ccccc2)NC(=O)[C@@H](CC(C)C)NC(=O)[C@H](Cc2ccccc2)NC(=O)[C@@H]2CCCN2C(=O)[C@@H](C)N(C)C(=O)[C@@H]2CCCN2C(=O)[C@H](CC(C)C)NC(=O)[C@H](CC(C)C)N(C)C1=O` [Design D12.4, PRO *DALA PRO PHE DLEU PHE PRO DPRO VAL DILE *LEU LEU] (cyclo(FP[dP]V[dI][NMeL]LP[dNMeA]PF[dL])), the PAMPA_Papp_Avg entry is on record as “BQL”, the PAMPA_R1 entry is “BQL” and the PAMPA_R3 result is “BQL”.

As to `CCCC[C@@H]1NC(=O)[C@@H](C)N(C)C(=O)[C@@H]2CCCN2C(=O)[C@@H](CC(C)C)NC(=O)[C@H](CC(C)C)N(C)C(=O)[C@H]2CCCN2C(=O)[C@H](CC(C)C)NC(=O)[C@@H](CC(C)C)NC(=O)[C@@H](C)NC1=O` [Design D9.28, DLEU LEU DPRO *LEU DLEU PRO *DALA MET DALA] (cyclo(L[dP][NMeL][dL]P[dNMeA][Nle][dA][dL])), the PAMPA_Papp_Avg was determined as 1.60E-06, the PAMPA_R1 was 1.84E-06 and the PAMPA_R3 was 1.41E-06.

For the compound `CCCC[C@@H]1NC(=O)[C@@H]2CCCN2C(=O)[C@@H](C(C)C)NC(=O)[C@@H](C)N(C)C(=O)[C@@H](CC(C)C)NC(=O)[C@@H](CC(C)C)NC(=O)[C@@H]2CCCN2C(=O)[C@H]2CCCN2C1=O` [Design D8.29, MET DPRO PRO DLEU DLEU *DALA DVAL PRO] (cyclo([dL][dL][dNMeA][dV]P[Nle][dP]P)), the PAMPA_Papp_Avg stood at 3.60E-07, the PAMPA_R1 is 3.98E-07 and the PAMPA_R3 is recorded as 3.61E-07.

Take `CCCC[C@@H]1NC(=O)[C@H](C(C)C)NC(=O)[C@H]2CCCN2C(=O)[C@@H]2CCCN2C(=O)[C@H](C)NC(=O)[C@@H](C)N(C)C(=O)[C@@H](CC(C)C)N(C)C(=O)[C@@H](C(C)C)NC(=O)[C@@H]2CCCN2C1=O` [Design D9.21, ALA PRO DPRO VAL MET PRO DVAL *DLEU *DALA] (cyclo(AP[dP]V[Nle]P[dV][dNMeL][dNMeA])): the PAMPA_Papp_Avg is given as 2.94E-07, the PAMPA_R1 turned out to be 2.78E-07 and the PAMPA_R3 came to 3.05E-07.

Regarding `CC(C)C[C@@H]1NC(=O)[C@H](CC(C)C)NC(=O)[C@H](C(C)C)NC(=O)[C@H](C)NC(=O)[C@@H]2CCCN2C(=O)[C@H]2CCCN2C(=O)[C@@H]2CCCN2C(=O)[C@H](C)N(C)C(=O)[C@@H](CC(C)C)N(C)C(=O)[C@@H]2CCCN2C(=O)[C@H](Cc2ccccc2)NC1=O` [Design D11.7, PHE PRO *DLEU *ALA PRO DPRO PRO ALA VAL LEU LEU] (cyclo(AVLLFP[dNMeL][NMeA]P[dP]P)), the PAMPA_Papp_Avg result is “BQL”, the PAMPA_R1 entry is listed as “BQL” and the PAMPA_R3 result is reported as “BQL”.

Turning to `CC[C@@H](C)[C@H]1NC(=O)[C@@H](CC(C)C)N(C)C(=O)[C@@H](CC(C)C)N(C)C(=O)[C@H](CC(C)C)NC(=O)[C@@H](CC(C)C)N(C)C(=O)[C@H](Cc2ccccc2)NC(=O)[C@H](CC(C)C)NC(=O)[C@@H]2CCCN2C(=O)[C@H]2CCCN2C(=O)[C@@H]2CCCN2C(=O)[C@H](CC(C)C)NC1=O` [Design D11.22, PHE *DLEU LEU *DLEU *DLEU DILE LEU PRO DPRO PRO LEU] (cyclo(LF[dNMeL]L[dNMeL][dNMeL][dI]LP[dP]P)), the PAMPA_Papp_Avg entry is given as “BQL”, the PAMPA_R1 result is “BQL” and the PAMPA_R3 entry was “BQL”.

On to `CC(C)C[C@@H]1NC(=O)[C@@H]2CCCN2C(=O)[C@H]2CCCN2C(=O)CN(C)C(=O)[C@@H](Cc2ccccc2)N(C)C(=O)[C@@H](CC(C)C)NC(=O)[C@@H](CC(C)C)N(C)C(=O)[C@@H]2CCCN2C(=O)[C@H](CC(C)C)N(C)C(=O)[C@H](CC(C)C)N(C)C1=O` [Design D10.22, PRO LEU *LEU *LEU PRO *DLEU DLEU *DPHE *GLY DPRO] (cyclo(L[NMeL][NMeL]P[dNMeL][dL][dNMeF][Sar][dP]P)), for which the PAMPA_Papp_Avg entry is recorded as “BQL”, the PAMPA_R1 entry is “BQL” and the PAMPA_R3 result is given as “BQL”. Moreover, the “permeability in transwell assays” value (Caco-2) is “not permeable”.

On to `CC[C@@H](C)[C@H]1NC(=O)[C@@H]2CCCN2C(=O)[C@H](CC(C)C)NC(=O)[C@@H](CC(C)C)NC(=O)[C@@H](Cc2ccccc2)NC(=O)[C@@H](Cc2ccccc2)NC(=O)[C@@H](C)NC(=O)[C@H]2CCCN2C(=O)[C@@H]2CCCN2C(=O)[C@@H](C(C)C)NC(=O)[C@@H]2CCCN2C(=O)[C@H]2CCCN2C1=O` [Design D12.9, DILE DPRO PRO DVAL PRO DPRO DALA DPHE DPHE DLEU LEU PRO] (cyclo([dV]P[dP][dA][dF][dF][dL]LP[dI][dP]P)), for which the PAMPA_Papp_Avg result is “BQL”, the PAMPA_R1 entry is listed as “BQL” and the PAMPA_R3 result is on record as “BQL”.

With `CC(C)C[C@@H]1NC(=O)[C@H]2CCCN2C(=O)[C@@H]2CCCN2C(=O)[C@H](C)N(C)C(=O)[C@@H](C(C)C)NC(=O)[C@H](Cc2ccccc2)NC(=O)[C@H]2CCCN2C(=O)[C@@H]2CCCN2C(=O)[C@@H](CC(C)C)NC1=O` [Design D9.20, DLEU PRO DPRO PHE DVAL *ALA PRO DPRO LEU] (cyclo(F[dV][NMeA]P[dP]L[dL]P[dP])), the PAMPA_Papp_Avg result was “BQL”, the PAMPA_R1 result is on record as “BQL” and the PAMPA_R3 entry is listed as “BQL”.

Turning to `CC[C@@H](C)[C@H]1NC(=O)[C@@H](CC(C)C)NC(=O)[C@@H](CC(C)C)NC(=O)[C@@H](C)NC(=O)[C@@H](CC(C)C)NC(=O)[C@H]2CCCN2C(=O)[C@@H]2CCCN2C(=O)[C@H]2CCCN2C(=O)[C@@H](C)NC(=O)[C@@H](CC(C)C)N(C)C(=O)[C@H]2CCCN2C1=O` [Design D11.19, DILE DPRO *DLEU DALA DPRO PRO DPRO DLEU DALA DLEU DLEU] (cyclo([dP][dL][dA][dL][dL][dI][dP][dNMeL][dA][dP]P)), the PAMPA_Papp_Avg entry was “BQL”, the PAMPA_R1 result was “BQL” and the PAMPA_R3 entry is “BQL”.
